The test system of assay [1] is protein-tyrosine kinase. Nature of the assay: Protein-Tyrosine Kinase Assay (human skin/hair follicle extract, Calbiochem kit). The following applies: inhibitor 1 mM, human skin supernatant fraction. The assay is classed as biochemical. Here is the method: Protein-tyrosine kinase activity was measured in human skin samples rich in hair follicles using a commercially available assay kit (Calbiochem). Human skin obtained from a local plastic surgeon as a by-product of face-lift procedures was homogenized in four volumes of the extraction buffer containing 20 mM Tris-HCL, pH7.4, 50 mM NaCl, 1 mM EDTA, 1 mM EGTA, 5 mM mercaptoethanol. The samples were centrifuged for 10 min at 16,000×g to remove the membrane/organelle fractions. The supernatant fraction was used for the tyrosine kinase assay. Adding 25 ml of the 20× concentrated solution to 475 ml of deionized water and mixing made a working solution of plate wash buffer. The kinase buffer was prepared by adding 50 ul/ml of the 2 mM ATP stock solution to 1× sample buffer without 2-mercatoethanol. (90 ul of the kinase buffer/well).For the enzyme assay, 10 ul of each sample was added to a well. 10 ul of Abl standard, as positive controls, were added to a well. The kinase reaction was started by adding 90 ul of 1× kinase buffer/well and incubated at room temp for 30 minutes. The contents of each well was washed six times with 1× wash buffer, 100 ul of PY20 antibody diluted 1:200 with 1× Sample/kinase reaction buffer (without ATP) (15 ul to 3 ml) were added and the combination incubated for 30 minutes. The test solutions were washed with wash buffer, and 100 ul of substrate solution were added to each and incubated in the dark for 6 minutes. 100 ul of stop solution were added, and the UV absorbance read at 450 nm. The increase in UV absorbance at 450 nm provided a measure of the enzyme activity.
The ability of protein-tyrosine kinase inhibitors to inhibit the skin/hair follicle enzyme activity was determined by measuring protein-tyrosine kinase activity in the presence and absence of the inhibitor. For enzyme inhibition studies, the inhibitor was added to the reaction mixture at a concentration of 1 mM following addition of the enzyme sample.

For assay [2], the system named is human hair follicles. Nature of the assay: Human Hair Follicle Growth Assay. The assay is classed as cell-based. Here is the method: Human hair follicles in growth phase (anagen) were isolated from face-lift tissue under a dissecting scope using a scalpel and watchmakers forceps. The skin was sliced into thin strips exposing 2-3 rows of follicles that could readily be dissected. […] Hair follicles were videorecorded in the 24-well plates under the dissecting scope under a power of 20×. Hair follicle lengths were assessed using an image analysis software system (Computer Eyes and NIH Image). Typically, initial recordings were made on day 0 (day follicles were placed in culture), and on days 1, 4, and 7.
The effect of five protein-tyrosine kinase inhibitors on human hair follicle growth was determined by exposing the isolated follicles to the enzyme inhibitors. The hair follicle lengths were determined before and after the inhibitor treatment.
In another experiment isolated hair follicles were exposed to either 1 mM or 0.01 mM concentration of the protein-tyrosine kinase inhibitor erbstatin, and the hair growth rate was compared to control. Measurements were made at days 0, 1 and 4.

Setting [3] is: isolated human follicles, inhibitor 50 μM.
Where [4] appears, read: isolated human follicles, inhibitor 250 μM.
The mark [5] stands for this setting: isolated human follicles, inhibitor 500 μM.
The mark [6] stands for this setting: isolated human follicles, inhibitor 500 μM, vs control.

Like-named read-outs stand apart in the source and are kept apart here.

With “N-acetyl-Asp-Tyr-(2-malonyl)-Val-Pro-Met-Leu-NH2”, the “% Inhibition (protein-tyrosine kinase activity)” value (from here on “% Inhibition”) in assay [1] is given as 83%.

Turning to `CO[C@H]1[C@@H](OC)C[C@H](C)[C@@H](OC)C2=CC(=O)C=C(NC(=O)/C(C)=C/C=C\[C@H](OC)[C@@H](OC(N)=O)/C(C)=C/[C@@H]1C)C2=O` [Herbimycin, herbimycin A], in assay [1], the “% Inhibition” value is listed as 37%.

For orientation: inhibition means how much of the control response was suppressed. Turning to `O=C(O)c1cc(N(Cc2ccccc2O)Cc2cc(O)ccc2O)ccc1O` [Lavendustin A, lavendustin A], the “% Inhibition” value in assay [1] is on record as 59%. In assay [2] (setting [3]), the “Hair Growth” value came out at 0 mm and the “Post-treatment hair follicle length” value is 3.5 ± .12 mm. The inhibition at 50 µM in assay [2] (isolated human follicles, inhibitor 50 μM, vs control) came to 100%.

For the compound `CC(=O)OCOC(c1ccc2ccccc2c1)P(=O)(OCOC(C)=O)OCOC(C)=O` (stereo not drawn) [HNMPA(AM)3, hydroxy-2-naphthalenylmethylphosphonic acid tris acetoxymethyl ester], the “% Inhibition” value in assay [1] is 66%.

Regarding `COc1cc2ncnc(Nc3cccc(Cl)c3)c2cc1OC` [Tryphostin AG 1478, 4-(3-Chloroanilino)-6,7-dimethoxyquinazoline], the inhibition at 250 µM in assay [2] (Homo sapiens, read-out: % Inhibition (hair growth)) came out at 40%. In assay [2] (setting [4]), the “Hair Growth” value was 0.6 mm and the “Post-treatment hair follicle length” value is 3.8 ± .19 mm.

Consider `N#CC(=Cc1ccc(O)c(O)c1)C(N)=S` [Tryphostin A47, α-cyano-(3,4-dihydroxy)thiocinnamide], for which the “% Inhibition” value in assay [1] is 16%.

As to `COC(=O)/C=C/c1ccc(O)c(O)c1` [methyl caffeate], the “% Inhibition” value in assay [1] stood at 100%. Further, in assay [2] (setting [5]), the “Hair Growth” value came out at 0.6 mm and the “Post-treatment hair follicle length” value is listed as 4.1 ± .17 mm. This compound also yielded an inhibition at 500 µM in assay [2] (setting [6]) of 40%.

Turning to `N#CC(=Cc1ccc(O)cc1)C(N)=C(C#N)C#N` [Tryphostin A48, 2-amino-4-(4'-hydroxyphenyl)-1,1,3-tricyanobuta-1,3-diene], in assay [2] (setting [5]), the “Hair Growth” value stood at 0.1 mm and the “Post-treatment hair follicle length” value was 3.3 ± .16 mm. Further, in assay [2] (setting [6]), the inhibition at 500 µM was found to be 91%.

For `O=CN/C=C/c1cc(O)ccc1O` [Erbstatin, erbstatin], in assay [2] (0.01 mM), the “Posttreatment (Day-1) Growth” value is 0.1 mm, the “Posttreatment (Day-1) Length” value is given as 3.1 ± .20 mm, the “Posttreatment (Day-4) Growth” value was found to be 0.8 mm and the “Posttreatment (Day-4) Length” value is listed as 3.8 ± .29 mm. In assay [2] (1 mM), the “Posttreatment (Day-1) Growth” value came to 0.0 mm, the “Posttreatment (Day-1) Length” value is 3.0 ± .17 mm, the “Posttreatment (Day-4) Growth” value is listed as 0.3 mm and the “Posttreatment (Day-4) Length” value is given as 3.3 ± .15 mm. Further, the inhibition at 10 µM in assay [2] (Homo sapiens, 24 h, 0.01 mM, day 1, vs control, read-out: Posttreatment (Day-1) Inhibition) worked out at 83%. Moreover, in assay [2] (Homo sapiens, 24 h, 1 mM, day 1, vs control, read-out: Posttreatment (Day-1) Inhibition), the inhibition at 1000 µM is 100%. Further, the inhibition at 10 µM in assay [2] (Homo sapiens, 96 h, 0.01 mM, day 4, vs control, read-out: Posttreatment (Day-4) Inhibition) was 11%. In addition, the inhibition at 1000 µM in assay [2] (Homo sapiens, 96 h, 1 mM, day 4, vs control, read-out: Posttreatment (Day-4) Inhibition) amounted to 67%. For the same compound, in assay [2] (setting [5]), the “Hair Growth” value is 0.3 mm and the “Post-treatment hair follicle length” value is given as 3.9 ± .10 mm. This compound came in with an inhibition at 500 µM in assay [2] (setting [6]) of 73%.

(Values after patent publication US6121269A, “Reduction of hair growth” (priority 1999, dated 2000).)
